# Reference: US11638723B2, “Method for generating T cells progenitors” (Assistance Publique—Hopitaux de Paris, priority 2017, dated 2023)
# How the values were obtained:
# [1] = biological target: T1, Aryl hydrocarbon/Dioxin receptor (AhR) (Homo sapiens, UniProt P35869); conditions: cited from earlier work
# T1 sequence (P35869 11-848): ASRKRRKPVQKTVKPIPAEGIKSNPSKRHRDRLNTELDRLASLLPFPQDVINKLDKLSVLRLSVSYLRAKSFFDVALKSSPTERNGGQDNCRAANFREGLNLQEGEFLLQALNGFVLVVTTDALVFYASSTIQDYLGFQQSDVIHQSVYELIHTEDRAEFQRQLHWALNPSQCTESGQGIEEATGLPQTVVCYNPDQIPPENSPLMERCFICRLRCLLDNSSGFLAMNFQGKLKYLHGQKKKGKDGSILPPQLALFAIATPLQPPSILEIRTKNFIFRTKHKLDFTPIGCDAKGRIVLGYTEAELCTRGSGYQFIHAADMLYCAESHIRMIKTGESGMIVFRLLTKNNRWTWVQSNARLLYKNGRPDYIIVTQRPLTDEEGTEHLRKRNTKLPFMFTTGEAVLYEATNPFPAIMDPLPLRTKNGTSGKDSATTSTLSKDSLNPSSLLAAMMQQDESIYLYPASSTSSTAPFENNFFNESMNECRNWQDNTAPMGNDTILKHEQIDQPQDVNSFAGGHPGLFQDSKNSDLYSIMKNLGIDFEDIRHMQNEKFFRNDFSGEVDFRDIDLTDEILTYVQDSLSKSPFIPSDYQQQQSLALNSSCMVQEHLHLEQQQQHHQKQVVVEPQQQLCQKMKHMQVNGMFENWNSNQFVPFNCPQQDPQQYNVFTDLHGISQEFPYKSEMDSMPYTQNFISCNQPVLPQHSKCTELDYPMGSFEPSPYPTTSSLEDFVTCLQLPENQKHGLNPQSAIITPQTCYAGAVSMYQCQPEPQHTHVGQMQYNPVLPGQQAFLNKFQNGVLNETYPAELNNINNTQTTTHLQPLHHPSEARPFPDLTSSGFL
# [2] = test system: CD34+ cells from cord blood; test: DL-4 culture of CD34+ cells, T-cell precursor generation (flow cytometry); format: cell-based, human; conditions: FIG. 9
# Procedure: CD34+ cells from human CB or mobilized peripheral blood samples were cultured in 24-well plates or 6-well plates that had been coated with recombinant human fibronection (RetroNectin®, Clontech/Takara) and DL-4 (5 μg/ml, PX'Therapeutics, Grenoble, France). Coating was performed for 2 h at 37° C., DL-4 coated wells were then blocked with bovine serum albumin 2% (BSA) in phosphate-buffered saline (PBS) for 30 minutes at 37° C. and washed with PBS. […] Cultured cells were analyzed by fluorescence-activated cell sorting (FACS) after 3 and 7 days of culture on DL-4 respectively to exclude CD34-/CD7-myeloid cells from subsequent analyses.
# Human cells were stained and analyzed using a Gallios analyzer (Beckman Coulter, Krefeld, Germany). […] The data were analyzed using FlowJo software (Treestar, Ashland, Oreg.) after gating on viable, 7AAD-negative cells.
# The data were analyzed using FlowJo software (version 10.2, Treestar, Ashland, Oreg.) after gating on viable, 7AAD-negative cells.
# [3] = test system: DL-4 T-cell precursors; test: Analysis of T cell receptor rearrangement; format: cell-based, human
# Procedure: TCR gene rearrangement analysis was performed in duplicate and on the two independently purified subsets (average is shown). TCR-δ quantification (D δ2-D δ3, D δ2-J δ1, and D δ3-J δ1) was performed with the listed sets of primers and probes. The analysis of TCR rearrangements by multiplex fluorescent PCR was performed by separation of fluorochrome-labeled single stand PCR products in a capillary sequencing polymer and detected via automated laser scanning.
Structure (SMILES),IC50 [1] [nM],"T-cell differentiation, CD5+CD7+ cells at day 7 [2]",TCRdelta rearrangements ([3]; CB cells),signs of TCR rearrangement ([3]; after 7 days of culture)
Cc1ccccc1N=Nc1ccc(NC(=O)c2ccnn2C)c(C)c1 [CH 223191],30,–,–,–
"CC(C)n1cnc2c(NCCc3ccc(O)cc3)nc(-c3csc4ccccc34)nc21 [SR1, 4-(2-(2-(Benzo[b]thiophen-3-yl)-9-isopropyl-9H-purin-6-ylamino)ethyl)phenol]",–,accelerates T-cell differentiation,Detection of D52-D53 rearrangements,do not exhibit any signs of TCR rearrangement
